From ChEMBL document CHEMBL1135678, “Pyrimidoquinazoline-based antitumor agents. Design of topoisomerase II to DNA cross-linkers with activity against protein kinases” (2002)
Active and inactive are the calls of the source. The calls are words filed in the database; no cut-off is given here.

Key:
[1] = tested on: WiDr; test: Compound tested for cytotoxicity against human cancer cell line (WiDr Colon); type: functional; conditions: read-out: LC50 (the source's name)
[2] = tested on: HT-29; test: Compound tested for cytotoxicity against human cancer cell line (HT-29 colon); Inactive; type: functional, cell-based
[3] = tested on: OVCAR-3; test: Compound tested for cytotoxicity against human cancer cell line (Ovcar 3 ovarian); type: functional; conditions: read-out: LC50 (the source's name)
[4] = tested on: HT-29; test: Compound tested for cytotoxicity against human cancer cell line (HT-29 colon); type: functional

| Structure (SMILES) | CC50 [1] [nM] | LC50 (50% lethal concentration) [4] [nM] | also measured |
| --- | --- | --- | --- |
| Oc1nc(CCl)nc2cc3c(O)nc(CCl)nc3cc12 | 5000 |  |  |
| COCCCn1c(CCl)nc2c(OC)c3c(=O)n(CCCOC)c(CCl)nc3c(OC)c2c1=O |  |  | IA [2]: inactive |
| COCCn1c(CCl)nc2c(OC)c3c(=O)n(CCOC)c(CCl)nc3c(OC)c2c1=O |  |  | IA [2]: inactive |
| Oc1nc(CBr)nc2cc3c(O)nc(CBr)nc3cc12 | 900 |  | CC50 [3]: 850 nM |
| COc1c2nc(CCl)n(C)c(=O)c2c(OC)c2nc(CCl)n(C)c(=O)c12 |  | 110 |  |
| Cn1c(CBr)nc2cc3c(=O)n(C)c(CBr)nc3cc2c1=O |  | 280 |  |
| CC(=O)Oc1nc2cc3c(=O)n(C)c(OC(C)=O)nc3cc2c(=O)n1C |  | 19000 |  |
| Cn1c(CCl)nc2cc3c(=O)n(C)c(CCl)nc3cc2c1=O | 350 |  | CC50 [3]: 2000 nM |
| COc1c2nc(CCl)n(C)c(=O)c2c(OC)c2c(=O)n(C)c(CCl)nc12 |  | 6330 |  |
| CCCn1c(CCl)nc2cc3c(=O)n(CCC)c(CCl)nc3cc2c1=O |  | 800 |  |
